The experiment relates to HL-60. Put plainly: Inhibitory concentration which reduces half the percentage of differentiated HL-60 cells induced by 1x 10 e-9 M Am80. It counts as functional, cell-based. The note with it: Homo sapiens.

As a reminder, the IC50 is the midpoint of a concentration-inhibition curve.

In turn, `CN1c2cc3c(cc2N=C(c2ccc(C(=O)O)cc2)c2ccc4ccccc4c21)C(C)(C)CCC3(C)C` registered an IC50 of 0.017 µM. That is a double-digit nanomolar value.

The values above are taken from ChEMBL document CHEMBL1133259, “Polymethylcarborane as a novel bioactive moiety: derivatives with potent retinoid antagonistic activity” (Bioorg Med Chem Lett, 2000).
